Results reported in publication PMC7125190, “Native/citrullinated LL37-specific T-cells help autoantibody production in Systemic Lupus Erythematosus” (Scientific Reports, 2020).
Non-standard residues stand in square brackets, D forms with d. Residues, ends and D or L forms follow the SMILES beside them. No end group written: not given here. Cit = NC(=O)NCCC[C@H](N)C(=O)O

Assays:
HLA-DR15 (DRB1*1501) = target: T1, HLA-DR15 (DRB1*1501) (Homo sapiens, UniProt P01903+P01911); experiment: HLA-DR folding assay (LOCI/AlphaScreen) peptide binding; settings: axis "Peptide (nM)", LOCI, 48 h at 18 °C, L243 acceptor beads, five-fold titrations, one representative experiment of two shown, read-out: average Ko
T1 construct: made in house; host or cells: E. coli
Experimental: (§1) Human recombinant HLADRA1*01:01, HLA-DRB1*01:01, and HLA-DRB1*15:01 were expressed in E. coli and purified in a series of liquid chromatography based steps[71].
(§2) We performed peptide-MHC binding assays by two different protocols by ImmunAware, Denmark and Benaroya Institute (USA). In the first protocol, binding was measured using a Luminescent Oxygen Channelling Immunoassay (LOCI), marketed by Perkin Elmer as AlphaScreen[72]. This is a nonradioactive bead-based homogenous proximity assay, where the donor beads containing a photosensitizer compound upon excitation with light at a 680 nm wavelength, converts ambient oxygen to energy-rich, short-lived singlet oxygen; that is transferred to a acceptor beads in close proximity only. The acceptor beads can respond to singlet oxygen with a luminescence/ fluorescence cascade leading to an amplified signal in the 520–620 nm range. As one tag binding to the donor beads: a biotin group engineered unto the HLA β chain. As the other tag binding to the acceptor beads: conformation-dependent HLA class II specific antibody (L243). Thus, only when a fully folded complex is present will the donor and acceptor beads come in sufficient close proximity and give a measurable signal. Biotinylated recombinant HLA class II molecules were diluted from an 8 M urea buffer into a folding buffer (PBS, 20% glycerol, Protease inhibitor mix) with peptide concentrations ranging from 0.13 nM to 10,000 nM. The analysed peptides were tested in 5-to-8 five-fold concentration titrations spanning from 20 μM to 0.3 nM. The reaction mixtures were incubated for 48 h at 18 °C to allow for peptide-HLA complex formation reaching steady state. After incubation, 15 μL of the folding mixture was transferred to a 384-well Optiplate (PerkinElmer) followed by addition of 15 μL of a solution containing L243 acceptor beads and streptavidin donor beads (final concentration of beads was 5 μL/mL). The plates were incubated over night at 18 °C, and then measured in enVisionTM, Perkin Elmer. Assay signals measured in […] were plotted against the offered peptide concentrations, and analyzed by non-linear regression using GraphPad Prism. […]
(§3) Figure S7. […] (A,B) Binding of LL37-peptides to HLA-DR1 (DRB1*0101) and to HLA-DR15 (DRB1*1501) was evaluated by a HLA-DR folding assays and detected by Luminescent Oxygen Channelling Immunoassay (LOCI) described in MM. […] (C-F) Binding to DR16 (DRB1*1601), DRB5 (HLA-DRB5*0101), DR4 (HLA-DRB1*0401) and DR10 (DRB1*1001) was evaluated by peptide competitionassay as in MM, and evaluated fluorimetrically. […]

[1] = test system: serum antibodies (anti-native LL37/anti-cit-LL37); experiment: ELISA for autoantibody detection in sera; type: binding, human; settings: for Antibody response to control peptides in SLE: SLE sera, ELISA OD
Experimental: Anti-native/cit-LL37, other antigen antibodies (anti-DNA and anti-RNA), and total anti-human IgG were measured by ELISA as described. Briefly, 96-well flat-bottom plates (Non-Binding surface polystyrene, Corning, USA) are coated with 2 μg/mL of native LL37/cit-LL37 or control proteins or human DNA or human RNA[9] or anti-human IgG antibody (Sigma) in carbonate buffer (0.1 M NaHCHO3, pH 9) for 2 hours (or over night) and washed four times with PBS 0.1% Tween-20. This washing buffer was used for washing at all steps. The blocking buffer containing 2% bovine serum albumin (BSA, Sigma) in PBS was used for at least 1 hour (or over night) to saturate unspecific binding sites. After washing, sera were diluted at various concentrations (usually 1:100 or 1:200) in PBS 2% BSA (cell culture supernatants were diluted 1:2, 1:4 or 1:10) followed by 1 hour incubation with a horseradish peroxidase–conjugated (HRP) goat anti-human IgG (Sigma-Aldrich), diluted 1:10,000 in PBS. The color was developed for 5 minutes with 3,3’,5,5’-tetramethylbenzidine (TMB) substrate (Sigma-Aldrich). The reaction was stopped by adding 50 μl of 2 N H2SO4, and absorbance determined at 450 nm with a reference wavelength of 540 nm. Anti-dsDNA in sera of lupus patients were detected by the standard clinical test Kallestad Crithidia luciliae Complete Kits for detection and semi-quantitation of autoantibodies to native DNA (nDNA) antigens by indirect fluorescence antibody (IFA) procedure. ELISA for detection of anti-tetanus antibodies (anti-TT) was from Abnova (Taiwan).

CD3+CD4+ T-cells = experiment: T-cell proliferation assay (BrdU incorporation of PBMC); type: cell-based, human; settings: SLE/CLE PBMC, day 6, BrdU
Experimental: PBMCs were purified, from EDTA-treated blood, on Ficoll-Hypaque (Pharmacia Fine Chemicals, Uppsala, Sweden) were incubated (10^5 cells/well) in 96-well-flat-bottom-microplates (BD) in T cell- […]
penicillin, and 100 μg/mL streptomycin), with/without peptides. We performed assays on fresh cells, within 1-to-3 hours from collection, or on PBMCs frozen in 90% FCS-10%DMSO, whose viability we assessed by Trypan blue exclusion, at inverted microscope.
At day3 and 5, BrdU was added (1 μg/mL). BrdU-incorporation was detected by APC-labeled anti-BrdU antibody (BD Pharmingen), after surface staining by flow cytometry. Internal control for T-cell viability and proliferation was PHA treatment (2 μg/mL). SI for proliferation was calculated by dividing percent of BrdU-staining in the presence of each peptide used to stimulate cells by percent of BrdU-staining in the absence of peptide stimulation. SI for proliferation was considered positive when>3. This cut-off was obtained by calculating the mean+2DS [1.5 + 2 (0.6)] (of the stimulation indexes calculated as above) of the proliferation of HD.
Basal % of proliferation was set using, as reference, an isotype matched antibody staining (APC- […]
Assays were repeated twice with each patient. In rare cases in which background proliferation exceed antigen-specific proliferation the assay was repeated three times. Concomitant phenotype analysis of LL37-responder T-cells included staining for CD4, CD8, CXCR5, PD1, ICOS, CCR6. […]

DNA = settings: cited from earlier work
[2] = test system: SLE/CLE CD4+ T-cell clones; experiment: T-cell clone reactivity (BrdU, HLA-matched B-LCLs pulsed with peptide); type: cell-based, human; settings: clones from one SLE and one CLE patient
Experimental: PBMCs were purified, from EDTA-treated blood, on Ficoll-Hypaque (Pharmacia Fine Chemicals, Uppsala, Sweden) were incubated (10^5 cells/well) in 96-well-flat-bottom-microplates (BD) in T cell-medium (RPMI 1640, 10% heat-inactivated human serum, HS, Gibco), 2 mM L-glutamine, 10 U/mL penicillin, and 100 μg/mL streptomycin), with/without peptides. We performed assays on fresh cells, within 1-to-3 hours from collection, or on PBMCs frozen in 90% FCS-10%DMSO, whose viability we assessed by Trypan blue exclusion, at inverted microscope. Recovery of live cells was between 65 and 85 % of the frozen number. At day3 and 5, BrdU was added (1 μg/mL). BrdU-incorporation was detected by APC-labeled anti-BrdU antibody (BD Pharmingen), after surface staining by flow cytometry. Internal control for T-cell viability and proliferation was PHA treatment (2 μg/mL). SI for proliferation was calculated by dividing percent of BrdU-staining in the presence of each peptide used to stimulate cells by percent of BrdU-staining in the absence of peptide stimulation. SI for proliferation was considered positive when>3. This cut-off was obtained by calculating the mean+2DS [1.5 + 2 (0.6)] (of the stimulation indexes calculated as above) of the proliferation of HD. […]
Assays were repeated twice with each patient. […] Ror-ɣt and Bcl-6 were measured by intracellular staining and flow cytometry, after 48 hours culture with LL37 or control antigen, and were analyzed on CD38highCD4 T-cells. […]
PBMCs were stimulated (2x10^6 cells/mL) with LL37 for 7 days and re-stimulated (10 days) with LL37-pulsed (10 µg/mL) autologous-ɣ-irradiated-(30Gy)-PBMCs in T-cell medium in the presence of human/recombinant (hr)IL-2 (Boehringer-Mannheim, Indian, USA). T cell lines-specificity was analyzed by using peptide-pulsed (0.1-10 µg/mL) autologous-irradiated PBMCs (30Gy) or lymphoblastoid-cell-lines (B-LCLs) (150Gy, 33). […]
analyzed by flow-cytometry (after staining by BrdU-detection kit, BD Pharmingen). […] Clones reactivity and HLA-restriction were analyzed using HLA-matched-homozigous B-LCLs, pulsed with […]

HLA-DR1 (DRB1*0101) = target: T2, HLA-DR1 (DRB1*0101) (Homo sapiens, UniProt P01903+P01911, A100R/D57E/F55L/F60I/F76Y/I96L/L162R/M171V/P40L/Q125E/R42F/V115G/Y59C); experiment: HLA-DR folding assay (LOCI/AlphaScreen) peptide binding; settings: axis "Peptide (nM)", LOCI, 48 h at 18 °C, L243 acceptor beads, five-fold titrations, one representative experiment of two shown, read-out: average Ko
T2 construct: made in house; host or cells: E. coli
Experimental: as §1, §2, §3

Compound: LLGDFFRKSKEKIGK [P1]
- Kd (HLA-DR15 (DRB1*1501)): 700 nM

Compound: CC[C@H](C)[C@H](NC(=O)[C@H](CCCCN)NC(=O)[C@H](CCC(=O)O)NC(=O)[C@H](CCCCN)NC(=O)[C@H](CO)NC(=O)[C@H](CCCCN)NC(=O)[C@H](CCCNC(N)=O)NC(=O)[C@H](Cc1ccccc1)NC(=O)[C@H](Cc1ccccc1)NC(=O)[C@H](CC(=O)O)NC(=O)CNC(=O)[C@H](CC(C)C)NC(=O)[C@@H](N)CC(C)C)C(=O)NCC(=O)N[C@@H](CCCCN)C(=O)O [cit-P1] (H-LLGDFF[Cit]KSKEKIGK-OH)
- Kd (HLA-DR15 (DRB1*1501)): 3440 nM

Compound: SETR(cit)PVLNR(cit)LFDKIR(cit)QVIR(cit)KEFEKGIKEKSKR(cit)FFDGLL [cit-REV, citrullinated REV peptide, reference compound]
- RA sera with antibody reactivity ([1]; RA sera, 14 of 70): 20%
- Antibody response to control peptides in SLE [1]: negative

Compound: SETRPVLNRLFDKIRQVIRKEFEKGIKEKSKRFFDGLL [REV, reference compound]
- T-cell response to control or short peptides (CD3+CD4+ T-cells): did not elicit T-cell responses
- Antibody response to control peptides in SLE [1]: negative
- DNA-binding activity (DNA): retains DNA-binding activity

Compound: GIINTLQKYYCRVRGGRCAVLSCLPKEEQIGKCSTRGRKCCRRKK [HBD3, control unrelated AMP human β-defensin-3, reference compound]
- T-cell response to control or short peptides (CD3+CD4+ T-cells): not significant

Compound: CPKYVKQNTLKLATG [HA306–320, promiscuously presented peptide derived from the hemoagglutinin protein of Influenza A, reference compound]
- T-cell clone reactivity [2]: did not cross-react

Compound: KDFLRNLVPRTES [P7]
- Kd (HLA-DR1 (DRB1*0101)): 60 nM

Compound: CC(C)C[C@H](NC(=O)[C@H](Cc1ccccc1)NC(=O)[C@H](CC(=O)O)NC(=O)[C@@H](N)CCCCN)C(=O)N[C@@H](CCCNC(N)=O)C(=O)N[C@@H](CC(N)=O)C(=O)N[C@@H](CC(C)C)C(=O)N[C@H](C(=O)N1CCC[C@H]1C(=O)N[C@@H](CCCNC(N)=O)C(=O)N[C@H](C(=O)N[C@@H](CCC(=O)O)C(=O)N[C@@H](CO)C(=O)O)[C@@H](C)O)C(C)C [cit-P7] (H-KDFL[Cit]NLVP[Cit]TES-OH)
- Kd (HLA-DR1 (DRB1*0101)): 305 nM
